These compounds were tested against HSET full length protein (Homo sapiens (Human), UniProt Q9BW19) (assay: HSET ADP-Glo Assay S - 3 μM ATP). Conditions: 5 nM HSET, 70 μg/mL microtubule, 80 min at rt, read-out: COMBINED HSET ADP GLO IC50.
HSET full length protein, sequence (Q9BW19 whole entry): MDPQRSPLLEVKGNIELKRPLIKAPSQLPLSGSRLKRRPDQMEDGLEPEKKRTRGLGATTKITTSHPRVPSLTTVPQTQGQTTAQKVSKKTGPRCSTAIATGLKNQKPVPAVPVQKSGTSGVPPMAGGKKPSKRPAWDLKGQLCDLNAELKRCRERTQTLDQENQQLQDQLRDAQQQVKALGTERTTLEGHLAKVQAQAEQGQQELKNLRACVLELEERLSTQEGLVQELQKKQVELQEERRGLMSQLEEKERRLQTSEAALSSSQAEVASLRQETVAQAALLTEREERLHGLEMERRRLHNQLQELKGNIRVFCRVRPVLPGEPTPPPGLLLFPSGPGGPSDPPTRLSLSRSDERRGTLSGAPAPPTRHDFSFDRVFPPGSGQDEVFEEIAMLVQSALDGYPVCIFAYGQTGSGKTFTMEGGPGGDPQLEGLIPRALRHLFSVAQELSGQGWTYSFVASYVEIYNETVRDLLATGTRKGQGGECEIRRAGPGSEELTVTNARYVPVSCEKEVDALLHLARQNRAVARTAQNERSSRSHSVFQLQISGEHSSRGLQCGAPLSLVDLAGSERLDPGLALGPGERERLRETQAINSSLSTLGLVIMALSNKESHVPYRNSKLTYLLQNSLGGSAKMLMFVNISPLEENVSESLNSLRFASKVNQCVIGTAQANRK
Format: biochemical
Procedure: Example 281: Testing compounds of the present invention for inhibitory activities against HSET—HSET ADP-Glo Assay S—3 μM ATP
Reagents: (+4° C. Storage) • Paclitaxel Prod.No.TXD.01 2 mM in DMSO (from Universal Biologicals Cambridge). • Tubulin Protein (Pre-formed Microtubules): Bovine Brain Prod.No.MT001-XL Lot.025 10 mg/mL (from Universal Biologicals Cambridge).
Reagents: (−80° C. Storage) • MT001-XL—Tubulin Protein (Pre-formed Microtubules): Bovine Brain—reconstituted in buffer—15 mM PIPES pH7, 1 mM MgCl2, 20 μM paclitaxel (aliquots at 10 mg/mL) from Universal Biologicals Cambridge. • HSET full length protein—Current batch is FL HSET Prep1 (SEQ-000096_002-01_01) • Buffer is 20 mM Hepes pH 7.5, 200 mM NaCl, 2 mM TCEP, 5% glycerol (5 μL aliquots at 10.2 μM)
Reagents: (−20° C. Storage) • ADP-Glo Kinase Assay kit (Promega Prod.No.V9102) 10,000 assay points • ADP-Glo reagent (50 mL), Kinase Detection Reagent (100 mL), and Ultrapure ATP (10 mM) aliquoted
Buffer Stocks (filtered and stored at rt for up to 1 month) • HEPES acid, 4-(2-Hydroxyethyl)piperazine-1-ethanesulfonic acid MW:238, 238.3 mg/mL=1 M • 7149 mg/30 mL=1M (pH to 6.8 with 5 M NaOH) • PIPES, 1,4-Piperazinediethanesulfonic acid MW: 302.4, 30.24 mg/mL=100 mM; 907.2 mg/30 mL=100 mM (pH to 7 with 5 M NaOH, white cloudy suspension until the pH changes) • EGTA, Ethylene glycol-bis(2-aminoethylether)-N,N,N′,N′-tetraacetic acid MW: 380.35, 38.035 mg/mL=100 mM • 1901.75 mg/50 mL=100 mM (pH to ˜7 with 5 M NaOH)—takes a long time to get into solution and for pH to stabilize • Triton-X-100, MW: 625, 62.5 mg/mL=100 mM (6.25% w/v) (viscous, pipette Triton X-100 with a Gilson using a trimmed pipette tip)
ECHO Protocol • Create an ECHO intermediate plate by adding 24.5 μL DMSO to columns 1 & 2, and 40 μL DMSO to columns 23 & 24 of an ECHO 384PP plate • Add 100 nL of compound/DMSO per well in 384-well Proxi-Plate Plus (white) —Perkin Elmer Cat #6008289 using ECHO dose response protocol 100 nL normal to proxi_8pt_200 uM.
Assay buffer (Keep on ice): HEPES pH 6.8, MgCl2, EGTA, Triton X-100, DTT, HPLC H2O Microtubule Working Solution (3.2): • 1 ml PM buffer: PIPES pH 7.0, MgCl2, HPLC H2O, Paclitaxel, mix well, store at rt • Then add 26.4 μL of 10 mg/ml microtubules to 724 μL of the above PM buffer to make 750 μL of microtubule working solution @350 μg/mL microtubules (store at rt)
Stock HSET enzyme solution (3.1)—keep on ice • Add 1.33 μL 10.2 μM HSET Prepi (SEQ-000096_002-01_01) to 1358 μL assay buffer to make a 10 nM stock for a 5 nM final assay concentration (1/1020 dilution).
HSET/Microtubule working solution (3.3) • Mix solutions 3.1 and 3.2 in the ratio of 2.5:1 (1214.3 μL 3.1+485.7 μL 3.2) keep at rt for 15 min • 3.2 is diluted 3.5-fold, 3.1 is diluted 1.4-fold BLANK solution is 357 μL 2XAB+143 μL microtubule working solution 3.2. (Same proportions as HSET/Microtubule working solution (3.3))
ATP Working solution is 1 μL 10 mM UltraPure ATP (Promega kit)+999 μL ddH20 gives 10 μM ATP for a 3 μM final assay concentration, stored on ice.
Assay procedure in PROXIPLATE 384 PLUS WHITE (Perkin Elmer) plates (Remove 2.4 mL ADP Glo and 4.5 mL Kinase detection reagent from freezer to warm up to rt) • Add 3.5 μL BLANK solution to assay plate (column 12) • Add 3.5 μL HSET/Microtubule solution (3.3) (columns 1-11 & 13-24) • Centrifuge at 1000 rpm for 1 min • (pre-incubate enzyme and compound for 10 min)
Add 1.5 μL of 10 μM ATP to start reaction gives a final [HSET] of 5 nM, [ATP] of 3 μM and [microtubule] of 70 μg/mL, centrifuge at 1000 rpm for 1 min and incubated at rt for 80 min.
After the 80-minute incubation, stop reaction by adding 5 μL ADP-Glo reagent to all wells. Centrifuge for 1 min at 1000 rpm, leave for 40 min at rt.
In the dark/away from direct light, add 10 μL Kinase Detection Reagent (KDR) to all wells, Seal plate with a Topseal (Perkin Elmer Cat #6050185) and centrifuge as above, leave for 40 min at rt covered in foil. […]
An IC50 of 5 nM was found for `Cc1nc(-c2ccc3ccnc(N[C@H]4C[C@@H](C(=O)Nc5nc(C)c(C(=O)O[C@@H](C)C(F)(F)F)s5)C4)c3c2)no1` (stereo in doubt) [Example 115, [(1 S)-2,2,2-trifluoro-1-methyl-ethyl]4-methyl-2-[[3-[[7-(5-methyl-1,2,4-oxadiazol-3-yl)-1-isoquinolyl]amino]cyclobutanecarbonyl]amino]thiazole-5-carboxylate] in this work.
An IC50 of 10 nM was found for `Cc1nc(-c2cccc(C(=O)N[C@@H](CC#N)CC(=O)N(C)c3nc(C)c(C(=O)OC(C)C)s3)c2)no1` [Example 199, Propan-2-yl 2-[(3S)-4-cyano-N-methyl-3-{[3-(5-methyl-1,2,4-oxadiazol-3-yl)phenyl]-formamido}butanamido]-4-methyl-1,3-thiazole-5-carboxylate] in this work.
An IC50 of 1780 nM was found for `Cc1nc(NC(=O)[C@H]2C[C@@H](Nc3nccc4ccc(C(F)(F)F)cc34)C2)sc1C(=O)OC(C)(C)C` [Example 109, tert-Butyl 4-methyl-2-((1s,3s)-3-((7-(trifluoromethyl)isoquinolin-1-yl)amino)cyclobutane-1-carboxamido)thiazole-5-carboxylate] in this work.
An IC50 of 7 nM was found for `CCCOC(=O)c1sc(NC(=O)[C@H]2C[C@@H](Nc3nccc4ccc(-c5noc(C)n5)cc34)C2)nc1C` [Example 99, Propyl4-methyl-2-((1s,3s)-3-((7-(5-methyl-1,2,4-oxadiazol-3-yl)isoquinolin-1-yl)amino)cyclobutane-1-carboxamido)thiazole-5-carboxylate] in this work.
An IC50 of 166 nM was found for `CCCCCc1cc(NC(=O)CCNc2nccc3ccc(-c4noc(C)n4)cc23)nn1C` [Example 57, 3-((7-(5-methyl-1,2,4-oxadiazol-3-yl)isoquinolin-1-yl)amino)-N-(1-methyl-5-pentyl-1 H-pyrazol-3-yl)propanamide] in this work.
An IC50 of 2100 nM was found for `CCOC(=O)c1sc(NC(=O)CCNC(=O)c2cccc(-c3noc(CC)n3)c2)nc1C` [Example 36, Ethyl 2-(3-(3-(5-ethyl-1,2,4-oxadiazol-3-yl)benzamido)propanamido)-4-methylthiazole-5-carboxylate] in this work.
An IC50 of 1700 nM was found for `COC(=O)c1sc(NC(=O)C[C@H](CC(=O)O)NC(=O)c2cccc(-c3noc(C)n3)c2)nc1C` [Example 216, (3R)-4-{[5-(methoxycarbonyl)-4-methyl-1,3-thiazol-2-yl]carbamoyl}-3-{[3-(5-methyl-1,2,4-oxadiazol-3-yl)phenyl]formamido}butanoic acid] in this work.
An IC50 of 10 nM was found for `Cc1nc(-c2cccc(C(=O)NCCC(=O)Nc3nc(C)c(C(=O)OC(C)(C)C)s3)c2)no1` [Example 132, Tert-butyl-4-methyl-2-(3-(3-(5-methyl-1,2,4-oxadiazol-3-yl)benzamido)propanamido)thiazole-5-carboxylate] in this work.
An IC50 of 119 nM was found for `CCCOC(=O)c1sc(NC(=O)[C@@H]2C[C@H](Nc3nccc4ccc(-c5noc(C)n5)cc34)CN2)nc1C` [Example 239, Propyl 4-methyl-2-((2S,4S)-4-((7-(5-methyl-1,2,4-oxadiazol-3-yl)isoquinolin-1-yl)amino)pyrrolidine-2-carboxamido)thiazole-5-carboxylate] in this work.
An IC50 of 8 nM was found for `Cc1nc(NC(=O)CCNC(=O)c2cccc(-c3nnn(C)n3)c2)sc1C(=O)OC(C)(C)C` [Example 39, tert-Butyl 4-methyl-2-[3-[[3-(2-methyltetrazol-5-yl)benzoyl]amino]propanoylamino]thiazole-5-carboxylate] in this work.
An IC50 of 6740 nM was found for `CCCCCc1cc(NC(=O)[C@@H]2C[C@H](Nc3nccc4ccc(-c5noc(C)n5)cc34)CN2C)nn1C` [Example 238, (2S,4S)-1-methyl-4-((7-(5-methyl-1,2,4-oxadiazol-3-yl)isoquinolin-1-yl)amino)-N-(1-methyl-5-pentyl-1 H-pyrazol-3-yl)pyrrolidine-2-carboxamide] in this work.
An IC50 of 133 nM was found for `CCOC(=O)c1sc(NC(=O)C[C@H](CN)NC(=O)c2cccc(-c3noc(C)n3)c2)nc1C` [Example 148, Ethyl-2-[[(3R)-4-amino-3-[[3-(5-methyl-1,2,4-oxadiazol-3-yl)benzoyl]amino]butanoyl]amino]-4-methyl-thiazole-5-carboxylate] in this work.
An IC50 of 531 nM was found for `CCOC(=O)n1cc(NC(=O)CCNc2nccc3ccc(-c4noc(C)n4)cc23)nc1C` [Example 259, Ethyl 2-methyl-4-(3-{[7-(5-methyl-1,2,4-oxadiazol-3-yl)isoquinolin-1-yl]amino}propanamido)-1 H-imidazole-1-carboxylate] in this work.
An IC50 of 1680 nM was found for `COC1(c2sc(NC(=O)CCNc3nccc4ccc(-c5noc(C)n5)cc34)nc2C)COC1` [Example 83, N-[5-(3-methoxyoxetan-3-yl)-4-methyl-thiazol-2-yl]-3-[[7-(5-methyl-1,2,4-oxadiazol-3-yl)-1-isoquinolyl]amino]propanamide] in this work.
An IC50 of 8 nM was found for `Cc1nc(-c2ccc3ccnc(N[C@H]4C[C@@H](C(=O)Nc5nc(C)c(C(=O)OC(C)(C)C)s5)C4)c3c2)no1` [Example 110, tert-Butyl 4-methyl-2-[[3-[[7-(5-methyl-1,2,4-oxadiazol-3-yl)-1-isoquinolyl]amino]cyclobutanecarbonyl]amino]thiazole-5-carboxylate] in this work.
An IC50 of 4340 nM was found for `CCc1cc(NC(=O)CCNc2nccc3ccc(-c4noc(C)n4)cc23)no1` [Example 79, N-(5-ethylisoxazol-3-yl)-3-((7-(5-methyl-1,2,4-oxadiazol-3-yl)isoquinolin-1-yl)amino)propanamide] in this work.
An IC50 of 6100 nM was found for `Cc1nc(-c2ccc3ccnc(N[C@H]4CCN(C(=O)c5cc(C(C)(C)C)[nH]n5)C4)c3c2)no1` [Example 254, (S)-(5-(tert-butyl)-1 H-pyrazol-3-yl)(3-((7-(5-methyl-1,2,4-oxadiazol-3-yl)isoquinolin-1-yl)amino)pyrrolidin-1-yl)methanone] in this work.
An IC50 of 1660 nM was found for `CCOC(=O)c1sc(NC(=O)CCNC(=O)c2ccc3c(c2)CCCC3)nc1C` [Example 5, Ethyl 4-methyl-2-(3-(5,6,7,8-tetrahydronaphthalene-2-carboxamido)propanamido)thiazole-5-carboxylate] in this work.
An IC50 of 68 nM was found for `Cc1nc(-c2ccc3ccnc(N[C@H]4C[C@@H](C(=O)N(C)c5nc(C)c(C(=O)OC(C)(C)C)s5)C4)c3c2)no1` [Example 111, tert-Butyl 4-methyl-2-[methyl-[3-[[7-(5-methyl-1,2,4-oxadiazol-3-yl)-1-isoquinolyl]amino]cyclobutanecarbonyl]amino]thiazole-5-carboxylate] in this work.
An IC50 of 20 nM was found for `Cc1ccc2ccnc(NC[C@H](O)C(=O)Nc3nc(C)c(C(=O)OC(C)(C)C)s3)c2c1` [Example 185, tert-Butyl (S)-2-(2-hydroxy-3-((7-methylisoquinolin-1-yl)amino)propanamido)-4-methylthiazole-5-carboxylate] in this work.
